Assay results: patent US20120077836A1, “METHODS OF ADMINISTERING (4AR,10AR)-1-N-PROPYL-1,2,3,4,4A,5,10,10A-OCTAHYDROBENZO [G] QUINOLINE-6,7-DIOL AND RELATED COMPOUNDS ACROSS THE ORAL MUCOSA, THE NASAL MUCOSA OR THE SKIN AND PHARMACEUTICAL COMPOSITIONS THEREOF” (priority 2009, published 2012)
Where a name gives a salt, the structure may show the parent alone. Read-outs that look alike come from different tables or passages of the source.

Assay: Intravenous and buccal pharmacokinetic study in the minipig
Assay type: in vivo
Conditions: male, Göttingen, in vivo
Description: The test article was compound 10. The vehicles for the test article were Sterile saline (0.9% NaCl) (intravenous administration) supplied by Baxter, Norfolk or Ascorbic acid reconstituted in Water for Injection (buccal administration) supplied by VWR International, Leicestershire. Formulations were prepared on the day of dosing.
Three male minipigs of the Göttingen ApS strain were supplied by Ellegaard Göttingen, Dalmose, Denmark. At initiation of dosing, animals were approximately 15 to 17 weeks old. Each animal was dosed once on three separate occasions according to the following study design:
Animals were deprived of food overnight and anaesthetised with isoflurane in oxygen (administered by facemask), prior to each dosing occasion.
Intravenous administrations were performed by slow manual injection via a temporary catheter placed in the ear vein whilst under anaesthesia, animals were allowed to recover from the anaesthesia immediately after dosing. Whilst anaesthetised, a catheter was inserted into the jugular vein and secured in place for the purpose of blood collection. The catheter was filled with heparin (250 iu/mL in 0.9% sodium chloride). The exterior portion of the catheter was routed from the ventral neck to the dorsum of the minipig and protected by bandaging. The distal end of the catheter was capped and placed in a re-sealable pouch within the bandage. The jugular catheter was retained in place and flushed with heparinised saline every 24 hours.
Buccal administrations were performed by applying the test formulation to the buccal membrane for 5 minutes while the animal was anaesthetised. Any residual formulation remaining in the mouth after the 5 minute application was […]. Animals were allowed to recover from the anaesthesia immediately after dosing.
, all animals on Day 3 following buccal administration of a low dose and all animals on Day 5 following buccal administration of a high dose for pharmacokinetic analysis. The samples (1.0 mL) were collected from the jugular vein (via catheter) into tubes containing EDTA anticoagulant. Prior to addition of the blood sample, 100 microL of a stabiliser (2% beta-mercaptoethanol containing 20 mg/mL ascorbic acid) was added to each pot. The stabiliser was prepared fresh on each day of sample collection. Samples were collected as follows: • Day 1: 5, 10, 15, 30 and 45 minutes and 1, 2, 4, 6, 8, 12 and 16 hours post-dose • Day 3: pre-dose and at 5, 10, 15, 30 and 45 minutes and 1, 2, 4, 6, 8, 12, 16 and 24 hours post-dose • Day 5: pre-dose and at 5, 10, 15, 30 and 45 minutes and 1, 2, 4, 6, 8, 12, 16 and 24 hours post-dose
The times of the blood sampling were generally adhered to. The greatest deviation from the scheduled timepoints was one minute late at the 5 minute timepoint on Day 3. The blood samples were centrifuged within one hour of sample collection and the resultant plasma was frozen prior to analysis.
The plasma concentrations of compound 10 were determined after solid phase extraction of the plasma samples followed by high performance liquid chromatography with tandem mass spectrometric detection (LC-MS/MS) using a sample volume of about 100 microL.
Internal standard solution, containing the internal standard of compound 10 was added to thawed plasma samples (100 microL aliquot). The SPE plate (Oasis HLB, 10 mg) was conditioned with methanol (500 microL) followed by water (500 microL). The sample (approx. 500 microL aliquot) was transferred to the pre-conditioned SPE plate. The sample was then passed through the cartridge, which was then washed with water:methanol (90:10 v/v, 0.5 mL). The sample was then eluted into a fresh 96 well polypropylene collection plate with 20 mM ammonium formate (aq): acetonitrile: formic acid (50:50:2 v/v/v, 250 microL). The organic component of the eluted samples was then evaporated under a gentle stream of nitrogen until approximately 50% of the original volume was remaining. […]

## CCCN1CCC[C@@H]2Cc3c(ccc(O)c3O)C[C@H]21 [compound 10, (4aR,10aR)-1-n-Propyl-1,2,3,4,4a,5,10,10a-octahydro-benzo[g]quinoline-6,7-diol hydrobromide]
0.01 mg/kg, buccal 0.010 mg/kg, mean, read-out: Plasma concentration Day 3 Hour 0.17, Mean
  concentration at 0.17 h: 0.148 ng/mL
0.01 mg/kg, buccal 0.010 mg/kg, mean, read-out: Plasma concentration Day 3 Hour 0.25, Mean
  concentration at 0.25 h: 0.314 ng/mL
0.01 mg/kg, buccal 0.010 mg/kg, mean, read-out: Plasma concentration Day 3 Hour 0.5, Mean
  concentration at 0.5 h: 0.752 ng/mL
0.01 mg/kg, buccal 0.010 mg/kg, mean, read-out: Plasma concentration Day 3 Hour 0.75, Mean
  concentration at 0.75 h: 1.04 ng/mL
0.01 mg/kg, buccal 0.010 mg/kg, mean, read-out: Plasma concentration Day 3 Hour 1, Mean
  concentration at 1 h: 0.869 ng/mL
0.01 mg/kg, buccal 0.010 mg/kg, mean, read-out: Plasma concentration Day 3 Hour 2, Mean
  concentration at 2 h: 0.487 ng/mL
0.01 mg/kg, buccal 0.010 mg/kg, range, read-out: bioavailability
  bioavailability: 30 to 42%
0.01 mg/kg, buccal 0.010 mg/kg, read-out: bioavailability, mean values
  bioavailability: 31 to 35%
0.01 mg/kg, buccal 0.010 mg/kg, read-out: mean apparent terminal half-life (converted)
  half-life: 5.1 h
0.04 mg/kg, buccal 0.040 mg/kg, animal 1
  Tmax: 1 h
0.04 mg/kg, buccal 0.040 mg/kg, individual animals 1-3, read-out: Plasma concentration Day 5 Hour 0.5
  concentration at 0.5 h: 7.88 ng/mL
0.04 mg/kg, buccal 0.040 mg/kg, individual animals 1-3, read-out: Plasma concentration Day 5 Hour 0.75
  concentration at 0.75 h: 15.9 ng/mL
0.04 mg/kg, buccal 0.040 mg/kg, individual animals 1-3, read-out: Plasma concentration Day 5 Hour 1
  concentration at 1 h: 11.9 ng/mL
0.04 mg/kg, buccal 0.040 mg/kg, mean, read-out: Plasma concentration Day 1 Hour 4, Mean
  concentration at 4 h: 1.93 ng/mL
0.04 mg/kg, buccal 0.040 mg/kg, mean, read-out: Plasma concentration Day 1 Hour 6, Mean
  concentration at 6 h: 0.93 ng/mL
0.04 mg/kg, buccal 0.040 mg/kg, mean, read-out: Plasma concentration Day 1 Hour 8, Mean
  concentration at 8 h: 0.522 ng/mL
0.04 mg/kg, buccal 0.040 mg/kg, mean, read-out: Plasma concentration Day 1 Hour 12, Mean
  concentration at 12 h: 0.604 ng/mL
0.04 mg/kg, buccal 0.040 mg/kg, mean, read-out: Plasma concentration Day 1 Hour 16, Mean
  concentration at 16 h: 0.292 ng/mL
0.04 mg/kg, buccal 0.040 mg/kg, mean, read-out: Plasma concentration Day 1 Hour 24, Mean
  concentration at 24 h: 0.119 ng/mL
0.04 mg/kg, buccal 0.040 mg/kg, mean, read-out: Plasma concentration Day 5 Hour 0.08, Mean
  concentration at 0.08 h: 1.29 ng/mL
0.04 mg/kg, buccal 0.040 mg/kg, mean, read-out: Plasma concentration Day 5 Hour 0.17, Mean
  concentration at 0.17 h: 3.27 ng/mL
0.04 mg/kg, buccal 0.040 mg/kg, mean, read-out: Plasma concentration Day 5 Hour 0.25, Mean
  concentration at 0.25 h: 5.45 ng/mL
0.04 mg/kg, buccal 0.040 mg/kg, mean, read-out: Plasma concentration Day 5 Hour 0.5, Mean
  concentration at 0.5 h: 7.14 ng/mL
0.04 mg/kg, buccal 0.040 mg/kg, mean, read-out: Plasma concentration Day 5 Hour 0.75, Mean
  concentration at 0.75 h: 12.4 ng/mL
0.04 mg/kg, buccal 0.040 mg/kg, mean, read-out: Plasma concentration Day 5 Hour 1, Mean
  concentration at 1 h: 10.8 ng/mL
0.04 mg/kg, buccal 0.040 mg/kg, mean, read-out: Plasma concentration Day 5 Hour 2, Mean
  concentration at 2 h: 6.3 ng/mL
0.04 mg/kg, buccal 0.040 mg/kg, range, read-out: bioavailability
  bioavailability: 73 to 136%
0.04 mg/kg, buccal 0.040 mg/kg, read-out: bioavailability, mean values
  bioavailability: 105 to 122%
0.04 mg/kg, buccal 0.040 mg/kg, read-out: mean apparent terminal half-life (converted)
  half-life: 5.6 h
IV bolus 0.0025 mg/kg, range of animals, read-out: apparent terminal elimination half-life (t½)
  half-life: 3.4 to 4.3 h
IV bolus 0.025 mg/kg (as printed in conclusion), read-out: individual apparent terminal elimination half-life
  half-life: 3.4 to 4.3 h
buccal, range in individual animals, read-out: apparent terminal elimination half-life
  half-life: 3.1 to 5.6 h
iv, 0.0025 mg/kg, IV 0.0025 mg/kg, individual animals 1-3, read-out: Plasma concentration Day 1 Hour 0.08
  concentration at 0.08 h: 1.21 ng/mL
iv, 0.0025 mg/kg, IV 0.0025 mg/kg, individual animals 1-3, read-out: Plasma concentration Day 1 Hour 0.17
  concentration at 0.17 h: 0.834 ng/mL
iv, 0.0025 mg/kg, IV 0.0025 mg/kg, individual animals 1-3, read-out: Plasma concentration Day 1 Hour 0.25
  concentration at 0.25 h: 0.74 ng/mL
iv, 0.0025 mg/kg, IV 0.0025 mg/kg, individual animals 1-3, read-out: Plasma concentration Day 1 Hour 0.5
  concentration at 0.5 h: 0.562 ng/mL
iv, 0.0025 mg/kg, IV 0.0025 mg/kg, individual animals 1-3, read-out: Plasma concentration Day 1 Hour 0.75
  concentration at 0.75 h: 0.534 ng/mL
iv, 0.0025 mg/kg, IV 0.0025 mg/kg, individual animals 1-3, read-out: Plasma concentration Day 1 Hour 1
  concentration at 1 h: 0.379 ng/mL
iv, 0.0025 mg/kg, IV 0.0025 mg/kg, individual animals 1-3, read-out: Plasma concentration Day 1 Hour 2
  concentration at 2 h: 0.198 ng/mL
iv, 0.0025 mg/kg, IV 0.0025 mg/kg, individual animals 1-3, read-out: Plasma concentration Day 1 Hour 4
  concentration at 4 h: 0.0748 ng/mL
iv, 0.0025 mg/kg, IV 0.0025 mg/kg, individual animals 1-3, read-out: Plasma concentration Day 1 Hour 6
  concentration at 6 h: 0.0476 ng/mL
iv, 0.0025 mg/kg, IV 0.0025 mg/kg, individual animals 1-3, read-out: Plasma concentration Day 1 Hour 8
  concentration at 8 h: 0.0245 ng/mL
iv, 0.0025 mg/kg, IV 0.0025 mg/kg, individual animals 1-3, read-out: Plasma concentration Day 1 Hour 12
  concentration at 12 h: 0.017 ng/mL
iv, 0.0025 mg/kg, IV 0.0025 mg/kg, individual animals 1-3, values below LLOQ 10 pg/mL estimated, read-out: Plasma concentration Day 1 Hour 16
  concentration at 16 h: 0.00858 ng/mL
iv, 0.0025 mg/kg, IV 0.0025 mg/kg, mean, read-out: Plasma concentration Day 1 Hour 0.08, Mean
  concentration at 0.08 h: 1.62 ng/mL
iv, 0.0025 mg/kg, IV 0.0025 mg/kg, mean, read-out: Plasma concentration Day 1 Hour 0.17, Mean
  concentration at 0.17 h: 1.02 ng/mL
iv, 0.0025 mg/kg, IV 0.0025 mg/kg, mean, read-out: Plasma concentration Day 1 Hour 0.25, Mean
  concentration at 0.25 h: 0.913 ng/mL
iv, 0.0025 mg/kg, IV 0.0025 mg/kg, mean, read-out: Plasma concentration Day 1 Hour 0.5, Mean
  concentration at 0.5 h: 0.673 ng/mL
iv, 0.0025 mg/kg, IV 0.0025 mg/kg, mean, read-out: Plasma concentration Day 1 Hour 0.75, Mean
  concentration at 0.75 h: 0.619 ng/mL
iv, 0.0025 mg/kg, IV 0.0025 mg/kg, mean, read-out: Plasma concentration Day 1 Hour 1, Mean
  concentration at 1 h: 0.421 ng/mL
iv, 0.0025 mg/kg, IV 0.0025 mg/kg, mean, read-out: Plasma concentration Day 1 Hour 2, Mean
  concentration at 2 h: 0.249 ng/mL
iv, 0.0025 mg/kg, IV 0.0025 mg/kg, mean, read-out: Plasma concentration Day 1 Hour 4, Mean
  concentration at 4 h: 0.0887 ng/mL
iv, 0.0025 mg/kg, IV 0.0025 mg/kg, mean, read-out: Plasma concentration Day 1 Hour 6, Mean
  concentration at 6 h: 0.0598 ng/mL
iv, 0.0025 mg/kg, IV 0.0025 mg/kg, mean, read-out: Plasma concentration Day 1 Hour 8, Mean
  concentration at 8 h: 0.033 ng/mL
iv, 0.0025 mg/kg, IV 0.0025 mg/kg, mean, read-out: Plasma concentration Day 1 Hour 12, Mean
  concentration at 12 h: 0.0226 ng/mL
iv, 0.0025 mg/kg, IV 0.0025 mg/kg, mean, read-out: Plasma concentration Day 1 Hour 16, Mean
  concentration at 16 h: 0.00931 ng/mL
